This is an account of results in ChEMBL document CHEMBL1833888, “Fuscoside E: a strong anti-inflammatory diterpene from Caribbean octocoral Eunicea fusca” (2011).

In brackets after ≈: the same amount, converted by molar mass. Activity calls are given as the source filed them. The rule behind the calls is not given here.

One test relates to Bacillus sp. In words: Antibacterial activity against Bacillus sp. by disc-diffusion assay. Format: functional, organism-based.
In test [1] the test system is Brucella pseudogrignonensis. The experiment in a line: Antibacterial activity against Ochrobactrum pseudogrignonense 21-6 pin by disc-diffusion assay. Type of test: functional, organism-based.
Another test deals with Mus musculus. The experiment in a line: Antiinflammatory activity in mouse assessed as inhibition of TPA-induced mouse ear edema at 0.5 mg/ear administered relative to untreated control. Type of test: functional.
Another test deals with Vibrio sp. In words: Antibacterial activity against Vibrio sp. 11-6 DEP. Format: functional.

As to `C/C=C(/CC[C@@H](C)[C@H]1CC[C@H]2[C@@H]3CC=C4C[C@@H](O)CC[C@]4(C)[C@H]3CC[C@]12C)C(C)C`, the result (in the test with Bacillus sp.; in test [1]) was Active.
As to `COc1ccc2c(c1)c(CC(=O)O)c(C)n2C(=O)c1ccc(Cl)cc1` [INDOMETHACIN], the “inhibition (INH)” value with Mus musculus is reported as 77.3%.
`C/C=C(\CC[C@@H](C)[C@H]1CC[C@H]2[C@@H]3CC=C4C[C@@H](O)CC[C@]4(C)[C@H]3CC[C@]12C)C(C)C`: the outcome (in the test on Bacillus sp.; in test [1]) was Active.
With `CC(C)CCC[C@@H](C)[C@H]1CC[C@H]2[C@@H]3CC=C4C[C@@H](O)CC[C@]4(C)[C@H]3CC[C@]12C`, the result (in the test with Bacillus sp.; in test [1]) was Active.
For the compound `CC(C)C(C)CC[C@@H](C)[C@H]1CC[C@H]2[C@@H]3CC=C4C[C@@H](O)CC[C@]4(C)[C@H]3CC[C@]12C` (some centres not stated), the result (in the test with Bacillus sp.; in test [1]) was Active.
With `C=C[C@@]1(C)CC[C@H](/C(C)=C/C=C/C(C)(C)O[C@@H]2OC[C@@H](O)[C@@H](O)[C@@H]2O)C[C@@H]1C(=C)C` [FUSCOSIDE B], in the test with Mus musculus, the “inhibition (INH)” value was determined as 81.5%.
Consider `C=C[C@@]1(C)CC[C@H](/C(C)=C/C=C/C(C)(C)O)C[C@@H]1C(=C)C` [FUSCOL], for which, in the test on Mus musculus, the “inhibition (INH)” value is given as 27.3%.
For orientation: MIC means the lowest concentration found to suppress growth. A low value points to inhibition by little substance. Take `C=C1/C=C/[C@@H](C(C)C)CC/C(C)=C/CC1`: in the test with Mus musculus, the “inhibition (INH)” value is recorded as 7.1%. The compound also had an MIC with Vibrio sp. of 15 µg/mL (≈ 73.4 µM). For the same compound, the result (with Bacillus sp.; in test [1]) was Active.
Regarding `CC(C)C/C=C/[C@@H](C)[C@H]1CC[C@H]2[C@@H]3CC=C4C[C@@H](O)CC[C@]4(C)[C@H]3CC[C@]12C`, the outcome (in the test with Bacillus sp.; in test [1]) was Active.
As to `CC(=O)O[C@@H]1[C@H](O[C@H]2CC[C@H](C)[C@@]3(C)C[C@@H](/C(C)=C/CC=C(C)C)CC[C@H]23)OC[C@@H](O)[C@H]1O` [FUSCOSIDE E], the “inhibition (INH)” value with Mus musculus is 80.5%. Further, the outcome (with Bacillus sp.; in test [1]) was Active.
Regarding `CC(C)C(C)/C=C/[C@@H](C)[C@H]1CC[C@H]2[C@@H]3CC=C4C[C@@H](O)CC[C@]4(C)[C@H]3CC[C@]12C` (some centres not stated), the outcome (in the test with Bacillus sp.; in test [1]) was Active.
